This is an account of results in ChEMBL document CHEMBL1140907, “Derivatives of 5-nitro-furan-2-carboxylic acid carbamoylmethyl ester inhibit RNase H activity associated with HIV-1 reverse transcriptase” (J Med Chem, 2009).

A word on the pIC50: it is the IC50 on a negative log10 scale, so that one unit is a factor of ten.

Data set [1] addresses Human immunodeficiency virus type 1 reverse transcriptase (Human immunodeficiency virus 1) (UniProt Q72547). Kind of data set: (§1) Inhibition of HIV1 LAI clade B reverse transcriptase RNase H activity by real time monitoring assay.
For data set [2], the target named is T1, Human immunodeficiency virus type 1 reverse transcriptase (Human immunodeficiency virus 1, UniProt Q72547). Kind of data set: Inhibition of HIV1 LAI CRF01 A_E s93JP-NH1 reverse transcriptase RNase H activity by real time monitoring assay. Also noted: species or system 93JP-NH1.
Data set [3] in a line: Cytotoxicity against T cells at >25 uM by MTT assay. As to conditions: t-cell. Type of data set: cell-based. (In general: Formazan colour is commonly taken as a measure of viable cells.)
Data set [4] can be described thus: Cytotoxicity against CD4-CXCR4 expressing human NP2 cells at >25 uM by MTT assay. The data set is classed as cell-based.
Data set [5] has as its system Human immunodeficiency virus 1. Kind of data set: Inhibition of HIV1 NL4-3 replication in CD4-CXCR4 expressing human NP2 cells assessed as decrease in p24 antigen production after 4 days by ELISA. The note with it: Human immunodeficiency virus 1, NL4-3, NP2, 96 h. (An ELISA detects its analyte on a solid surface through an enzyme-linked reagent.)
In data set [6] the target is T1, Human immunodeficiency virus type 1 reverse transcriptase. The data set is described as §1.
The nature of data set [7]: Inhibition of murine leukemia virus reverse transcriptase by real time monitoring assay.
Data set [8] in a line: Cytotoxicity against IL2 and anti-CD3-stimulated CD4 expressing primary T cells at 25 to 30 uM by MTT assay. Type of data set: cell-based. As to conditions: t-cell.
Data set [9] deals with Human immunodeficiency virus 1. Kind of data set: Inhibition of HIV1 NL4-3 replication in CD4 expressing human T cells assessed as decrease in p24 antigen production at 25 uM after 4 days by ELISA. Type of data set: functional, organism-based. The note with it: T-cell.
The next data set relates to Escherichia coli. Kind of data set: Inhibition of Escherichia coli RNase H by real time monitoring assay.
Data set [10] has as its target Human immunodeficiency virus type 1 integrase (Human immunodeficiency virus 1) (UniProt Q7ZJM1). Kind of data set: Inhibition of HIV1 integrase by real time monitoring assay.
For data set [11], the target named is T1, Human immunodeficiency virus type 1 reverse transcriptase. Kind of data set: Inhibition of HIV1 LAI clade C 93IN101 reverse transcriptase RNase H activity by real time monitoring assay.
The target of data set [12] is T2, Ribonuclease H1 (Homo sapiens) (UniProt O60930).
T2 sequence (whole entry): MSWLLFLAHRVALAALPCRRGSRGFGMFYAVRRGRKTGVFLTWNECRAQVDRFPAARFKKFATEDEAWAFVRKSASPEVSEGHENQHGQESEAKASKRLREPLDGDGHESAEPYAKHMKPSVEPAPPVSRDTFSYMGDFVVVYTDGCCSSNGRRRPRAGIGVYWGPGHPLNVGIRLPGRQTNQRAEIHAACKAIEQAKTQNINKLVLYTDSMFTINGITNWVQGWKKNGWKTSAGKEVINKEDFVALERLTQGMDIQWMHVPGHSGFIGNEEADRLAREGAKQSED
Kind of data set: Inhibition of human RNase H1 by real time monitoring assay.

The structures appear in SMILES notation. pIC50: −log10 of the molar value. The source made the active and inactive calls. No cut-off for these calls is given here.

Sequence of Human immunodeficiency virus type 1 integrase (Human immunodeficiency virus 1) (Q7ZJM1 as listed by the source): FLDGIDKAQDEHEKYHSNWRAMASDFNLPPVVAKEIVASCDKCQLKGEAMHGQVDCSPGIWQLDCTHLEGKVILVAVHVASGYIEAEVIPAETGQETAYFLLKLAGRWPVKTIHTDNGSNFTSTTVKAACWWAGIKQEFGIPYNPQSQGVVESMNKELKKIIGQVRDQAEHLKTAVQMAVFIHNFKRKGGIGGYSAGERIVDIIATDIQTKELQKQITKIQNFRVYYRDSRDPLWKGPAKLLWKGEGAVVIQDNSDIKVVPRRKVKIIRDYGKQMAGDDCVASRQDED

For `O=C(COC(=O)c1ccc([N+](=O)[O-])o1)Nc1ncc(C(F)(F)F)cc1Cl`, the outcome in [1] was Active.
`O=C(COC(=O)c1ccccn1)NC12CC3CC(CC(C3)C1)C2`: the result in data set [1] was inactive.
The same measure, in the same setting: then `CCOC(=O)c1c(-c2cccs2)csc1NC(=O)COC(=O)c1ccc([N+](=O)[O-])o1`, with “inactive”; and `O=C(COC(=O)c1cccnc1Cl)NC12CC3CC(CC(C3)C1)C2`, with “inactive”; and `O=C(COC(=O)c1ccc([N+](=O)[O-])o1)Nc1ccccc1F`, with “inactive”.
Same read-out and setting: then `CCOC(=O)c1c(NC(=O)COC(=O)c2ccc([N+](=O)[O-])o2)sc(C)c1C`, with “inactive”; and `O=C(COC(=O)c1cncc(Br)c1)NC12CC3CC(CC(C3)C1)C2`, with “inactive”.
In the case of `O=C1CCC(C(=O)OCC(=O)NC23CC4CC(CC(C4)C2)C3)N1` (centres undefined), the outcome in data set [1] was inactive.
Turning to `O=C(OCC(=O)N(CC1CCCO1)c1nc(-c2ccc(Br)cc2)cs1)c1ccc([N+](=O)[O-])o1` (centres undefined), the negative-log IC50 (pIC50) was 5.59 in data set [2]; 4.64 in data set [5]; 4.57 in data set [6]; 5.07 in data set [7]; 4.49 in data set [11]. Further, the Activity in data set [3], in [4] and in [8] was 50% in each case. In data set [9], the outcome was Active. Moreover, the outcome (in the data set on Escherichia coli; in data set [10]) was inactive.
For `Cc1ccc(NC(=O)COC(=O)c2ccc([N+](=O)[O-])o2)cc1S(=O)(=O)N1CCCCCC1`, the result in [1] was Active.
Still for that read-out and setting: then `CN(C)S(=O)(=O)c1cccc(NC(=O)COC(=O)c2ccc([N+](=O)[O-])o2)c1`, with “Active”; and `Cc1ccc(NC(=O)COC(=O)c2ccc([N+](=O)[O-])o2)cc1`, with “inactive”.
Turning to `O=C(COC(=O)c1ccc([N+](=O)[O-])o1)Nc1cc(C(F)(F)F)cc(C(F)(F)F)c1`, in data set [1], the result was Active.
For the compound `O=C(COC(=O)c1ccc([N+](=O)[O-])o1)Nc1ccc(Cl)c(S(=O)(=O)N2CCOCC2)c1`, the result in [1] was Active.
On the same count and under the same terms, the entry for `O=C(COC(=O)c1ccc([N+](=O)[O-])o1)Nc1ccc(F)cc1F` is “inactive”.
Regarding `O=C(COC(=O)c1ccc([N+](=O)[O-])o1)NC12CC3CC(CC(C3)C1)C2`, the pIC50 in [2] was 5.42; in data set [6] it was 4.53; in [7] it was 5.08; in data set [11] it was 4.58. Also, the Activity in data set [3], in data set [4] and in [8] was 50% in each case. Moreover, the result (with Escherichia coli; in data set [10]; in data set [12]) was inactive.
As for `CCOc1cc(N2CCOCC2)cc(OCC)c1NC(=O)COC(=O)c1ccc([N+](=O)[O-])o1`, the outcome in [1] was inactive.
Turning to `CCOC(=O)c1sc(N(Cc2ccccc2)C(=O)COC(=O)c2ccc([N+](=O)[O-])o2)nc1C`, the outcome in data set [1] was inactive.
Still for that read-out and setting: then `O=C(COC(=O)c1ccc[nH]1)NC12CC3CC(CC(C3)C1)C2`, with “inactive”; and `O=C(COC(=O)c1ccc([N+](=O)[O-])o1)Nc1nc2ccccc2s1`, with “Active”.
